Measurements taken from patent US20240398805A1, “QUINAZOLINE DERIVED COMPOUNDS AS EGFR INHIBITORS AND THEIR USES THEREOF” (ACCUTAR BIOTECHNOLOGY INC., priority 2021, published 2024).

Legend:
Format in all cases: cell-based
HCC827 cells = assay: Cell growth inhibition (CellTiter-Glo, 3 days) in HCC827; conditions: Homo sapiens, 72 h, 3 days after administration
Method: (§1) 2. Cell Growth Inhibition for HCC827, HCC827-SVD, HCC827-ASV, HCC827-YVMA and A431.
(§2) HCC827(ATCC), HCC827-SVD, HCC827-ASV, HCC827-YVMA were seeded in 96-well plates at 5000 cells/well in 90 μl of RPMI growth medium containing 10% FBS and 1% Penicillin Streptomycin. A431 (ATCC) cells were seed in 96-well plates at 5000 cells/well in 90 μl of DMEM growth medium containing 10% FBS and 1% Penicillin Streptomycin. Cells were incubated at 3700 overnight. The following day, the test compound was administered to the cells by using 1 Ox compound stock solution prepared in growth medium at various concentrations. After administration of the compound, cells were then incubated at 3700 for 3 days. Before CeIlTiter-Glo assay, the plates were equilibrated at room temperature for approximately 10 minutes. 100 ul of CelTiter-Glo® Reagent (Promega) was added to each well. The plates were then incubated at room temperature for 10 minutes and luminescence was recorded by EnSpire plate reader (PerkinElmer).

[1] = tested on: HCC827-SVD cells (human EGFR exon 20 insertion mutant D770_N771 insSVD); assay: Cell growth inhibition (CellTiter-Glo, 3 days) in HCC827-SVD; conditions: 72 h, 3 days after administration
Method: (§3) 1. Preparation of HCC827-SVD, HCC827-ASV and HCC827-YVMA Cell Lines
HCC827-SVD cell line were generated by first transducing HCC827 cells (ATCC) with lentiviral particles expressing codon-optimized human EGFR exon 20 insertion mutant D770_N771 insSVD, and then selecting under 5 μg/ml purimycin treatment for a week.
The resulting cells were further transduced with lentiviral particles carrying EGFR sgRNA and CAS9 to knockout the endogenous alleles of EGFR, and then selected under 500 μg/ml hygromycin B treatment for two weeks. Single clone was subsequently generated by limiting dilution approach. Endogenous EGFR knockout was confirmed by Sanger sequencing of cell genomic DNA and expression of exogenous mutant EGFR was verified by Western blot analysis.
as §1, §2

[2] = tested on: HCC827-ASV cells (human EGFR exon 20 insertion mutant A769_D770insASV); assay: Cell growth inhibition (CellTiter-Glo, 3 days) in HCC827-ASV; conditions: 72 h, 3 days after administration
Text: as §3
(§4) HCC827-ASV and HCC827-YVMA cell lines were generated in the similar approach as HCC827-SVD except that HCC827 cells (ATCC) were first transduced with lentiviral particles expressing codon-optimized human EGFR exon 20 insertion mutant A769_D770insASV and human ERBB2 exon20 insertion mutant A775_G776ins YVMA, respectively.
as §1, §2

[3] = tested on: HCC827-YVMA cells (human ERBB2 exon20 insertion mutant A775_G776ins YVMA); assay: Cell growth inhibition (CellTiter-Glo, 3 days) in HCC827-YVMA; conditions: 72 h, 3 days after administration
Text: as §3, §4, §1, §2

A431 cells = assay: Cell growth inhibition (CellTiter-Glo, 3 days) in A431; conditions: Homo sapiens, A-431, 72 h, 3 days after administration
Method: as §1, §2

| GI50 (HCC827 cells) [nM] | GI50 [1] [nM] | GI50 [2] [nM] | GI50 [3] [nM] | GI50 (A431 cells) [nM] | SMILES |
| --- | --- | --- | --- | --- | --- |
| < 30 | < 30 | < 30 | < 30 | 100 to 300 | C=CC(=O)N1CCC(Nc2cc3c(Nc4ccc(Oc5ccnc(N6CC(C)(C)C6)c5)cc4F)ncnc3cc2OC)CC1 [Example 202, 1-(4-((4-((4-((2-(3,3-dimethylazetidin-1-yl)pyridin-4-yl)oxy)-2-fluorophenyl)amino)-7-methoxyquinazolin-6-yl)amino)piperidin-1-yl)prop-2-en-1-one] |
| ≥ 1000 | 300 to 600 | ≥ 1000 | ≥ 1000 | ≥ 1000 | C=CC(=O)N1CCC(Nc2cc3c(Nc4ccc(Oc5ccnc(N6CCNC(C)(C)C6)c5)cc4F)ncnc3cc2OC)CC1 [Example 226, 1-(4-((4-((4-((2-(3,3-dimethylpiperazin-1-yl)pyridin-4-yl)oxy)-2-fluorophenyl)amino)-7-methoxyquinazolin-6-yl)amino)piperidin-1-yl)prop-2-en-1-one] |
| 100 to 300 | < 30 | < 30 | < 30 | 600 to 1000 | C=CC(=O)N1CCC(Nc2cc3c(Nc4ccc(Oc5ccnc(N6CCCC(C)(O)C6)c5)cc4F)ncnc3cc2OC)CC1 (centres unmarked) [Example 220, 1-(4-((4-((2-fluoro-4-((2-(3-hydroxy-3-methylpiperidin-1-yl)pyridin-4-yl)oxy)phenyl)amino)-7-methoxyquinazolin-6-yl)amino)piperidin-1-yl)prop-2-en-1-one] |
| 100 to 300 | 30 to 60 | 60 to 100 | 60 to 100 | 300 to 600 | C=CC(=O)N1CCC(Nc2cc3c(Nc4ccc(Oc5ccnc(N6CCC[C@@H](OC)C6)c5)c(Cl)c4)ncnc3cc2OC)CC1 [Example 227, (R)-1-(4-((4-((3-chloro-4-((2-(3-methoxypiperidin-1-yl)pyridin-4-yl)oxy)phenyl)amino)-7-methoxyquinazolin-6-yl)amino)piperidin-1-yl)prop-2-en-1-one] |
| 600 to 1000 | 60 to 100 | 60 to 100 | 100 to 300 | ≥ 1000 | C=CC(=O)N1CCC(Nc2cc3c(Nc4ccc(Oc5ccnc(N6CC[C@H](O)[C@H](F)C6)c5)cc4F)ncnc3cc2OC)CC1 [Example 170, 1-(4-((4-((2-fluoro-4-((2-((3R,4S)-3-fluoro-4-hydroxypiperidin-1-yl)pyridin-4-yl)oxy)phenyl)amino)-7-methoxyquinazolin-6-yl)amino)piperidin-1-yl)prop-2-en-1-one] |
| 300 to 600 | 100 to 300 | 60 to 100 | 60 to 100 | ≥ 1000 | C=CC(=O)N1CCC(Nc2cc3c(Nc4ccc(Oc5ccnc(N6CCN(C)CC6)c5)c(Cl)c4)ncnc3cc2OC)CC1 [Example 228, 1-(4-((4-((3-chloro-4-((2-(4-methylpiperazin-1-yl)pyridin-4-yl)oxy)phenyl)amino)-7-methoxyquinazolin-6-yl)amino)piperidin-1-yl)prop-2-en-1-one] |
| ≥ 1000 | ≥ 1000 | ≥ 1000 | ≥ 1000 | ≥ 1000 | C=CC(=O)N1CC2(CC(Nc3cc4c(Nc5ccc(Oc6ccn(-c7cnc(OC)nc7)n6)cc5F)ncnc4cc3OC)C2)C1 [Compound 84, 1-(6-((4-((2-fluoro-4-((1-(2-methoxypyrimidin-5-yl)-1H-pyrazol-3-yl)oxy)phenyl)amino)-7-methoxyquinazolin-6-yl)amino)-2-azaspiro[3.3]heptan-2-yl)prop-2-en-1-one] |
| 300 to 600 | < 30 | < 30 | < 30 | ≥ 1000 | C=CC(=O)N1CCC(Nc2cc3c(Nc4ccc(Oc5ccnc(N6C[C@H](C)O[C@@H](C)C6)c5)cc4F)ncnc3cc2OC)CC1 [Example 105, 1-(4-((4-((4-((2-((2S,6S)-2,6-dimethylmorpholino)pyridin-4-yl)oxy)-2-fluorophenyl)amino)-7-methoxyquinazolin-6-yl)amino)piperidin-1-yl)prop-2-en-1-one] |
| 100 to 300 | 60 to 100 | < 30 | 60 to 100 | 300 to 600 | C=CC(=O)N1CCC(Nc2cc3c(Nc4ccc(Oc5ccnc(-c6ccn[nH]6)c5)cc4F)ncnc3cc2OC)CC1 [Example 45, 1-(4-((4-((4-((2-(1H-pyrazol-5-yl)pyridin-4-yl)oxy)-2-fluorophenyl)amino)-7-methoxyquinazolin-6-yl)amino)piperidin-1-yl)prop-2-en-1-one] |
| 60 to 100 | 30 to 60 | < 30 | < 30 | 300 to 600 | C=CC(=O)N1CCC(Nc2cc3c(Nc4ccc(Oc5ccnc(-c6cccc(C)c6)c5)cc4F)ncnc3cc2OC)CC1 [Example 234, 1-(4-((4-((2-fluoro-4-((2-(m-tolyl)pyridin-4-yl)oxy)phenyl)amino)-7-methoxyquinazolin-6-yl)amino)piperidin-1-yl)prop-2-en-1-one] |
| 30 to 60 | 300 to 600 | 300 to 600 | 300 to 600 | 600 to 1000 | C=CC(=O)N1CCC(Nc2cc3c(Nc4ccc(Oc5ccc(N6C[C@@H](C)O[C@@H](C)C6)cn5)cc4F)ncnc3cc2OC)CC1 [Example 111, 1-(4-((4-((4-((5-((2R,6S)-2,6-dimethylmorpholino)pyridin-2-yl)oxy)-2-fluorophenyl)amino)-7-methoxyquinazolin-6-yl)amino)piperidin-1-yl)prop-2-en-1-one] |
| 30 to 60 | 100 to 300 | 60 to 100 | 30 to 60 | ≥ 1000 | C=CC(=O)N1CCC(Nc2cc3c(Nc4ccc(Oc5ncc(-c6cnc(C)c(F)c6)s5)cc4F)ncnc3cc2OC)CC1 [Example 88, 1-(4-((4-((2-fluoro-4-((5-(5-fluoro-6-methylpyridin-3-yl)thiazol-2-yl)oxy)phenyl)amino)-7-methoxyquinazolin-6-yl)amino)piperidin-1-yl)prop-2-en-1-one] |
| 100 to 300 | < 30 | < 30 | < 30 | 600 to 1000 | C=CC(=O)N1CCC(Nc2cc3c(Nc4ccc(Oc5ccnc(N6CCC(C#N)C6)c5)cc4F)ncnc3cc2OC)CC1 (centres unmarked) [Compound 151, 1-(4-(4-((6-((1-acryloylpiperidin-4-yl)amino)-7-methoxyquinazolin-4-yl)amino)-3-fluorophenoxy)pyridin-2-yl)pyrrolidine-3-carbonitrile] |
| < 30 | < 30 | 60 to 100 | 60 to 100 | 300 to 600 | C=CC(=O)N1CCC(Nc2cc3c(Nc4ccc(Oc5ccnc(N6CC7CCCC7C6)c5)cc4F)ncnc3cc2OC)CC1 (centres unmarked) [Example 239, 1-(4-((4-((2-fluoro-4-((2-(hexahydrocyclopenta [c]pyrrol-2(1H)-yl)pyridin-4-yl)oxy)phenyl)amino)-7-methoxyquinazolin-6-yl)amino)piperidin-1-yl)prop-2-en-1-one] |
| ≥ 1000 | ≥ 1000 | ≥ 1000 | ≥ 1000 | ≥ 1000 | C=CC(=O)N1CCC(Nc2cc3c(Nc4ccc(Oc5ccnc(NC6COC6)c5)cc4F)ncnc3cc2OC)CC1 [Example 183, 1-(4-((4-((2-fluoro-4-((2-(oxetan-3-ylamino)pyridin-4-yl)oxy)phenyl)amino)-7-methoxyquinazolin-6-yl)amino)piperidin-1-yl)prop-2-en-1-one] |
| 600 to 1000 | 60 to 100 | < 30 | 60 to 100 | ≥ 1000 | C=CC(=O)N1CCC(Oc2cc3c(Nc4ccc(Oc5ccnc(N6C[C@@H](C)O[C@@H](C)C6)c5)cc4F)ncnc3cc2OC)CC1 [Example 152, 1-(4-((4-((4-((2-((2R,6S)-2,6-dimethylmorpholino)pyridin-4-yl)oxy)-2-fluorophenyl)amino)-7-methoxyquinazolin-6-yl)oxy)piperidin-1-yl)prop-2-en-1-one] |
| 300 to 600 | 100 to 300 | – | – | 300 to 600 | C=CC(=O)N1CC[C@H](Oc2cc3c(Nc4ccc(Oc5ccn(-c6cnc(OC)nc6)n5)cc4F)ncnc3cc2OC)C1 [Compound 81, (S)-1-(3-((4-((2-fluoro-4-((1-(2-methoxypyrimidin-5-yl)-1H-pyrazol-3-yl)oxy)phenyl)amino)-7-methoxyquinazolin-6-yl)oxy)pyrrolidin-1-yl) prop-2-en-1-one] |
